Test results as given in US20150307520A1, “NOVEL HETEROARYL AND HETEROCYCLE COMPOUNDS, COMPOSITIONS AND METHODS THEREOF” (HUTCHISON MEDIPHARMA LIMITED, priority 2012, published 2015).

Legend:
Assay type in all cases: biochemical
p110β/p85α = p110β/p85α (Homo sapiens, UniProt P42338); assay: Transcreener KINASE Assay, kinase inhibition of p110β/p85α; settings: for PI3Kβ IH % @ 1 uM: 1 uM test compound; for IC50: read-out: PI3Kβ IC50
How it was run: (§1)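 Steps: compound (2% DMSO final) plus enzyme in HEPES/NaCl/EGTA/CHAPS/3 mM MgCl2/1 mM DTT buffer; start with PIP2/ATP addition (30 uM/10 uM solution); 80 min RT; add ADP detection mix, 60 min RT; read fluorescence polarization.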

p110δ/p85α = p110δ/p85α (Homo sapiens, UniProt O00329); assay: Transcreener KINASE Assay, kinase inhibition of p110δ/p85α; settings: for PI3Kδ IH % @ 1 uM: 1 uM test compound; for IC50: read-out: PI3Kδ IC50
How it was run: as §1

p110γ = p110γ (Homo sapiens, UniProt P48736); assay: Transcreener KINASE Assay, kinase inhibition of p110γ; settings: for PI3Kγ IH % @ 1 uM: 1 uM test compound; for IC50: read-out: PI3Kγ IC50
How it was run: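 Recombinant PI3K isoforms (p85α complexes or p110γ alone) reacted 80 min at room temperature, then ADP detection mix added for 60 min. ADP formation read by far-red competitive fluorescence polarization immunoassay; IC50 by curve fitting.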

Sequence of p110β/p85α (P42338 whole entry): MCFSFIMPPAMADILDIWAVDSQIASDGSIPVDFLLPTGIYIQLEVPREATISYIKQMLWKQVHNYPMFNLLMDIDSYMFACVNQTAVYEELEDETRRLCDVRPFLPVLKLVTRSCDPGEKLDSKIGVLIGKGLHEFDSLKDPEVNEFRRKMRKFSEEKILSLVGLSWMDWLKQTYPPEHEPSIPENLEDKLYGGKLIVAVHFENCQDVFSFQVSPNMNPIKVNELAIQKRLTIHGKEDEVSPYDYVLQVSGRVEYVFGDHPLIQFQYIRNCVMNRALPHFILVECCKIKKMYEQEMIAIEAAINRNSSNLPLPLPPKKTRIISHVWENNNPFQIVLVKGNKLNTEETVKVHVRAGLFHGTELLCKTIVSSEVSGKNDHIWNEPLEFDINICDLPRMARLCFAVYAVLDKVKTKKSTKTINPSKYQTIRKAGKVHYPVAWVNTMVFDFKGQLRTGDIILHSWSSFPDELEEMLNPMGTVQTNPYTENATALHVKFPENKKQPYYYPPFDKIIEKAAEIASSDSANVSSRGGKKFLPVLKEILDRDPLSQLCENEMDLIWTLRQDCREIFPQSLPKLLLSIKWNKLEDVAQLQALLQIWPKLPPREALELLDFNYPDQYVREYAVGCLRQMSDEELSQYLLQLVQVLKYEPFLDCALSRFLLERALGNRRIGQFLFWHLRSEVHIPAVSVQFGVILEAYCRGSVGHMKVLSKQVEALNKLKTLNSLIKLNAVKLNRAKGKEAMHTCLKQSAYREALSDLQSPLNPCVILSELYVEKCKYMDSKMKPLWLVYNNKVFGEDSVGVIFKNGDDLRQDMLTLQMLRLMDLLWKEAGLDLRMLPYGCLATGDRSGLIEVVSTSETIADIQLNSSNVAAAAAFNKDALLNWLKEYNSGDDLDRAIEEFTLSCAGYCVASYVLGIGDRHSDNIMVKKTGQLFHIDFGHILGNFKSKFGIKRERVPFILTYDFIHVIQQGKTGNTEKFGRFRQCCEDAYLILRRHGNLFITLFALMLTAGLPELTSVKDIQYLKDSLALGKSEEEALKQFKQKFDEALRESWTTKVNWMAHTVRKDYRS
Sequence of p110β/p85α (P27986 2-724 partner): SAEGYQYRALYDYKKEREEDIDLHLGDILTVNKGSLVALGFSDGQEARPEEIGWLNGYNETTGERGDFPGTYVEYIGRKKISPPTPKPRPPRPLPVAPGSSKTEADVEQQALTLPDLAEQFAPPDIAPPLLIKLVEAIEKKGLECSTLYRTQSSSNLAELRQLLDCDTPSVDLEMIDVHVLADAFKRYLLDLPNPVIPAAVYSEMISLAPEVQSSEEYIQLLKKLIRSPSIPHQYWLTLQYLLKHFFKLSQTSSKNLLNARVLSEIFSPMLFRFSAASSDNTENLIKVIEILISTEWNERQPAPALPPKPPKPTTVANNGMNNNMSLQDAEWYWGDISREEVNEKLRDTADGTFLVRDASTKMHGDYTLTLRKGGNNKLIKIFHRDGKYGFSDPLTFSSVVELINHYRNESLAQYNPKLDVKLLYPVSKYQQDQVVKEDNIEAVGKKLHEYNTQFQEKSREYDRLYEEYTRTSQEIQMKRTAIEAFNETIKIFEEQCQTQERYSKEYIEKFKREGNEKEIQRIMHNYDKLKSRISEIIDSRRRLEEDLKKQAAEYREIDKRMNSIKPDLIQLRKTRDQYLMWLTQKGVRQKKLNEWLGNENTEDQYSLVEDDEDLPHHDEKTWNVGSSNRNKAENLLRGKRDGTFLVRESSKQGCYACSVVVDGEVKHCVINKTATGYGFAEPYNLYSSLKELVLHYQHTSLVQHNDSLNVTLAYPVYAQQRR
Sequence of p110δ/p85α (O00329 whole entry): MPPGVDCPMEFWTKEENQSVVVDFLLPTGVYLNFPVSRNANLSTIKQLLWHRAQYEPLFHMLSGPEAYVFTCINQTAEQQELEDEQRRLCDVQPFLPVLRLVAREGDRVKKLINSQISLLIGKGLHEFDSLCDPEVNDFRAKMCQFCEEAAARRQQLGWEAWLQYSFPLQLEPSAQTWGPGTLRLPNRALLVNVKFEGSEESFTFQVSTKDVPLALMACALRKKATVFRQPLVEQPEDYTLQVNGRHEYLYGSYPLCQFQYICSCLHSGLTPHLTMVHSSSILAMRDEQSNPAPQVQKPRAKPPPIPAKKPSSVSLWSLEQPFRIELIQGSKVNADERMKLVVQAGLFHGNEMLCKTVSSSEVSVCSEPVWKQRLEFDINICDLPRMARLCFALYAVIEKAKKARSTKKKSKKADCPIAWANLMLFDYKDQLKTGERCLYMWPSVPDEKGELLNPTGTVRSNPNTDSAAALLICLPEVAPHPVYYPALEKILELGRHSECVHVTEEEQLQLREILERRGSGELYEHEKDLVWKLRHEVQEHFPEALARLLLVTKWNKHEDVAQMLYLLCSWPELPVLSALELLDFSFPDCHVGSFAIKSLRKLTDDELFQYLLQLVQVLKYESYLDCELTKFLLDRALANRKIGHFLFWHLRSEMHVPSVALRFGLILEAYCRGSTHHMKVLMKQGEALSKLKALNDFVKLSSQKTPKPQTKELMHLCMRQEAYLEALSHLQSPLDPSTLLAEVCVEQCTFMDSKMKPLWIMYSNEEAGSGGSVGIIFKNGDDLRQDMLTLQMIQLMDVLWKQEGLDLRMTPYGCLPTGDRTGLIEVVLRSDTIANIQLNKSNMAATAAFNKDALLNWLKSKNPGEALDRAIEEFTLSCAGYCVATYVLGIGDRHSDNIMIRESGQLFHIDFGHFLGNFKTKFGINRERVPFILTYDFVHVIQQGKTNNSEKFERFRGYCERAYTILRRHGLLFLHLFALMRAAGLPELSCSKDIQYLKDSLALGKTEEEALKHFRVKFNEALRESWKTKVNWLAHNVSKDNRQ
Sequence of p110δ/p85α (P27986 whole entry partner): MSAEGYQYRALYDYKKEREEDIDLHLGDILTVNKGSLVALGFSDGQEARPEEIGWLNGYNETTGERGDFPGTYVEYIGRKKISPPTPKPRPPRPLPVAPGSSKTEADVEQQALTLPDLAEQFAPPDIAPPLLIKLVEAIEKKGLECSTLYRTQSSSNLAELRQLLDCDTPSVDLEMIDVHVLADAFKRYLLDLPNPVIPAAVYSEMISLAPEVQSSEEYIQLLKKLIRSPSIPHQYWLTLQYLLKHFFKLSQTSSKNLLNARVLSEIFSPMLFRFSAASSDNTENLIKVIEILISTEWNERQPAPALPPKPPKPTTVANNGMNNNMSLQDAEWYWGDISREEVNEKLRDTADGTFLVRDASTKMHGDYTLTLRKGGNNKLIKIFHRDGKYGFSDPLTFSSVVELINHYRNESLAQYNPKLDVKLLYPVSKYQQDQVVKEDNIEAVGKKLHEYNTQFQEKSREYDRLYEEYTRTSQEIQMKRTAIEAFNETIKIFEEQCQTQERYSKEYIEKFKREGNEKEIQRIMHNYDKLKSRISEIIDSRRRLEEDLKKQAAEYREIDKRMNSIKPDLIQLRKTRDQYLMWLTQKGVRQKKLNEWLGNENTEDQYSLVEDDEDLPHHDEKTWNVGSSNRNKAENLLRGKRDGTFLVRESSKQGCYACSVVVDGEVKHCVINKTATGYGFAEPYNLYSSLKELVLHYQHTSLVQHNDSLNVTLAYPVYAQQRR
Sequence of p110γ (P48736 whole entry, canonical isoform): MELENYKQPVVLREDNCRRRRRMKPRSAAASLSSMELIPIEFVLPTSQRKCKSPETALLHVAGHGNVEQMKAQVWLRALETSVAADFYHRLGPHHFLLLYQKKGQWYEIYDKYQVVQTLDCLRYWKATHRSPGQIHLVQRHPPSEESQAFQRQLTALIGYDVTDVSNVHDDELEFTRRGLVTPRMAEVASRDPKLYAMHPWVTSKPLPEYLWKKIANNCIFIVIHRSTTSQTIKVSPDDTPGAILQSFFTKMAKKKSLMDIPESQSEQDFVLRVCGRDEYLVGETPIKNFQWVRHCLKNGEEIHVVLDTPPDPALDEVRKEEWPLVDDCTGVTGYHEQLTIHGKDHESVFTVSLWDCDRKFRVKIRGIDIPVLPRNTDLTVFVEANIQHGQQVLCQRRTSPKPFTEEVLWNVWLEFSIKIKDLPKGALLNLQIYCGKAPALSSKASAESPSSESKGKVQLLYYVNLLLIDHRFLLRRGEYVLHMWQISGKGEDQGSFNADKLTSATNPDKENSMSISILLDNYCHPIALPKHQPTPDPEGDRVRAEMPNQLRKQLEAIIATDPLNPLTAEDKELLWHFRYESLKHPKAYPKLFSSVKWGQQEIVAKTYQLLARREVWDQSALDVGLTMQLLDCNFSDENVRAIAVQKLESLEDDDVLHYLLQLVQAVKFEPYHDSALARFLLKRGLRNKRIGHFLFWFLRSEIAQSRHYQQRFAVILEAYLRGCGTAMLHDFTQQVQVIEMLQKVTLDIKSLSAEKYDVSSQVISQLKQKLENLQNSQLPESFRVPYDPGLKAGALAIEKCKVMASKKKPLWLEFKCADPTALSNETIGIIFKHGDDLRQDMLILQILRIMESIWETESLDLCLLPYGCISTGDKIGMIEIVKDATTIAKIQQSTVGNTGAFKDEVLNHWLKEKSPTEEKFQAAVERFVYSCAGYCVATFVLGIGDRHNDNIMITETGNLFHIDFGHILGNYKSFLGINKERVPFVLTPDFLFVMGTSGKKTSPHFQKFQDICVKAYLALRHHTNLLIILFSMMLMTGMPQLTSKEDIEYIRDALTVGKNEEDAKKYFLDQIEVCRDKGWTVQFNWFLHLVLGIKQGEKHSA

Row | PI3Kβ IH % @ 1 uM (p110β/p85α) [%] | IC50 (p110β/p85α) [nM] | PI3Kδ IH % @ 1 uM (p110δ/p85α) [%] | IC50 (p110δ/p85α) [nM] | PI3Kγ IH % @ 1 uM (p110γ) [%] | IC50 (p110γ) [nM] | Structure (SMILES)
1 | >100 | 35 | >100 | 1 | >100 | 4 | N#Cc1c[nH]c2ncnc(N3C[C@@H](C#N)C[C@H]3c3nn4ccc(Cl)c4c(=O)n3-c3cccc(F)c3)c12 [Compound 350]
2 | 9.7 | – | 51.2 | – | 51.2 | – | COc1cnc(N)nc1N1CC[C@H]1c1nn2ccc(Cl)c2c(=O)n1-c1ccccc1 [Compound 284]
3 | 45.1 | – | 55.1 | – | 84.6 | 144 | CN(C)C(=O)c1c[nH]c2ncnc(N3CCC[C@H]3c3nn4ccc(Cl)c4c(=O)n3-c3ccccc3)c12 [Compound 97]
4 | >100 | 17 | >100 | – | >100 | 3 | Nc1ncc(-c2c[nH]c3ncnc(N4CC[C@H]4c4nn5ccc(Cl)c5c(=O)n4-c4ccccc4)c23)cn1 [Compound 104]
5 | 45.0 | – | >100 | 8 | 94.1 | 23 | C[C@H]1CN(c2nc(N)ncc2Cl)[C@@H]1c1nn2ccc(Cl)c2c(=O)n1-c1ccccc1 [Compound 465]
6 | 68.6 | 300 | >100 | 1 | >100 | 11 | O=c1c2c(Cl)ccn2nc([C@@H]2C[C@H](OCCO)CN2c2ncnc3[nH]cnc23)n1-c1ccccc1 [Compound 265]
7 | 31.9 | – | 95.3 | 32 | 98.7 | 14 | Nc1nc2c(c(N3CC[C@H]3c3nn4ccc(Cl)c4c(=O)n3-c3ccccc3)n1)C(=O)CCN2 [Compound 241]
8 | 63.4 | – | >100 | 6 | >100 | 14 | N#Cc1cnc(N)nc1N1CCC[C@H]1c1nn2ccc(Cl)c2c(=O)n1-c1cccc(F)c1 [Compound 232]
9 | 10.4 | – | 94.7 | 76 | 73.0 | 467 | N#Cc1c[nH]c2ncnc(N3CCC[C@H]3c3nn4ccc(Cl)c4c(=O)n3CC3CCCCC3)c12 [Compound 258]
10 | 56.6 | – | 97.0 | 7 | 68.9 | – | CN(C)CCn1c([C@@H]2CCCN2c2ncnc3[nH]cc(C#N)c23)nn2ccc(Cl)c2c1=O [Compound 252]
11 | 41.8 | – | 98.7 | 9 | >100 | 30 | COCCNC(=O)c1c[nH]c2ncnc(N3CCC[C@H]3c3nn4ccc(Cl)c4c(=O)n3-c3ccccc3)c12 [Compound 226]
12 | 87.2 | – | 96.1 | – | 97.8 | – | CC(Nc1nc(N)ncc1C#N)c1cn2ccc(F)c2c(=O)n1-c1ccccc1 (single isomer, unassigned) [Compound 449]
13 | −2.0 | – | 47.0 | – | 87.2 | 256 | Cn1cc(-c2cnc(N)nc2N2CC[C@H]2c2nn3ccc(Cl)c3c(=O)n2-c2ccccc2)cn1 [Compound 280]
14 | 19.5 | – | 86.7 | 44 | 83.0 | 173 | O=c1c2c(Cl)ccn2nc([C@@H]2CCN2c2ncnc3[nH]cc(F)c23)n1-c1ccccc1 [Compound 148]
15 | 43.0 | – | >100 | 5 | 92.0 | 42 | COCC#Cc1c[nH]c2ncnc(N3CC[C@H]3c3nn4ccc(Cl)c4c(=O)n3-c3ccccc3)c12 [Compound 279]
16 | 67.1 | 456 | 98.8 | 1 | >100 | 5 | CC(=O)c1cnc(N)nc1N1C[C@H](C)[C@H]1c1nn2ccc(F)c2c(=O)n1-c1ccccc1 [Compound 324]
17 | 76.8 | 322 | >100 | 3 | 95.0 | 21 | C[S@+]([O-])c1c[nH]c2ncnc(N3CCC[C@H]3c3nn4ccc(Cl)c4c(=O)n3-c3cccc(F)c3)c12 (single isomer, unassigned) [Compound 386]
18 | 73.2 | 206 | 98.9 | 3 | >100 | 13 | C[S+]([O-])c1c[nH]c2ncnc(N3C[C@@H](F)C[C@H]3c3nn4ccc(Cl)c4c(=O)n3-c3ccccc3)c12 (stereo partly shown) [Compound 267]
19 | 56.7 | – | 97.6 | 3 | 93.7 | 40 | CC(Nc1nc(N)ncc1C(F)(F)F)c1cc2ncc(Cl)n2c(=O)n1-c1ccccc1 (stereo not shown) [Compound 154]
20 | 86.1 | 369 | >100 | 2 | 94.1 | 17 | C[S@+]([O-])c1c[nH]c2ncnc(N3CCC[C@H]3c3nn4ccc(F)c4c(=O)n3-c3ccccc3)c12 [Compound 396, 5-fluoro-2-((S)-1-(5-((S)-methylsulfinyl)-7H-pyrrolo[2,3-d]pyrimidin-4-yl)pyrrolidin-2-yl)-3-phenylpyrrolo[2,1-f][1,2,4]triazin-4(3H)-one]
21 | 22.2 | – | >100 | 12 | 70.4 | 81 | O=C1C[C@@H](c2nn3ccc(F)c3c(=O)n2-c2ccccc2)N(c2ncnc3[nH]cnc23)C1 [Compound 400]
22 | 87.8 | 70 | 98.3 | 2 | 91.8 | 13 | N#C[C@H]1C[C@@H](c2nn3ccc(Cl)c3c(=O)n2-c2cccc(F)c2)N(c2ncnc3[nH]cnc23)C1 [Compound 347, (3S,5S)-5-(5-chloro-3-(3-fluorophenyl)-4-oxo-3,4-dihydropyrrolo[2,1-f][1,2,4]triazin-2-yl)-1-(9H-purin-6-yl)pyrrolidine-3-carbonitrile]
23 | 47.1 | – | >100 | 19 | 90.5 | 51 | Cc1nc(N)nc(N2C[C@H](C)[C@H]2c2nn3ccc(Cl)c3c(=O)n2-c2ccccc2)n1 [Compound 469]
24 | 79.0 | 257 | >100 | 4 | >100 | 37 | CC(Nc1ncnc2[nH]cc(F)c12)c1cc2ncc(Cl)n2c(=O)n1-c1ccccc1 (stereo not shown) [Compound 285]
25 | −4.8 | – | 8.4 | – | 8.9 | – | Nc1nc(N2CCC[C@H]2c2nn3ccc(Cl)c3c(=O)n2-c2ccccc2)ncc1C(F)(F)F [Compound 49]
